Results: patent publication US20260102379A1, “Inhibitor of PFKFB2 Kinase Activity and Cellular Glycolysis” (Oklahoma Medical Research Foundation, priority 2024, published 2026)
pIC50: −log10 of the molar value.

Biological target: T1, PFKFB3 (Homo sapiens, UniProt Q16875)
T1 construct: GST (cleaved yes); host or cells: Rosetta cells (bacteria)
Assay: PFK-2 kinase activity assay (coupled PPi-PFK assay), recombinant PFKFB3
Assay type: biochemical
Settings: recombinant PFKFB3, concentration course
Procedure: Recombinant Protein Expression: PFKFB2, PFKFB1, and PFKFB3 constructs (Origene) were subcloned into GST expression vector. Mutation of PFKFB2 at K174 to G [3], H259 to A [4], and the double mutant were created using Quickchange methodology. All constructs were transformed into Rosetta cells (Milipore), expressed and induced following standard protocol. Bacteria were harvested via centrifugation and pellets resuspended in 10 mL sonication buffer (50 mM TrisHCl pH 7.5, 10% glycerol, 150 mM NaCl, 10 mM Imidazole, 10 uL 1M DTT, and 1 protease inhibitor tablet). Cells were sonicated (power lvl 5, 45 s, 4×, QSonica) at 4° C. and spun 10 krpm for 10 min at 4° C. to collect protein lysate. […] Protein concentration was determined by Nanodrop (Thermo).
The resultant F-2,6-BP levels were determined by pyrophosphate-fructose-6-phosphate phosphotransferase (PPi-PFK) activity. After the preincubation phase, the F-2,6-BP/PFK2 mixture was diluted 10× by 50 mM pH 8.0 Tris assay buffer, supplemented with 5 mM Mg^2+, 0.5 mM PPi and 1 mM F-6-P. The PPi-PFK activity was measured as the rate of NADH oxidation (ε340=6200 M^−1 cm^−1) following the addition of 150 μM NADH to a mixture of excess PPi-PFK, 0.1 μg/mL triosephosphate isomerase, 10 μg/mL glycerol-3-phosphate dehydrogenase, and 0.01 U/mL aldolase. […]

T1 sequence (Q16875 whole entry, species assumed): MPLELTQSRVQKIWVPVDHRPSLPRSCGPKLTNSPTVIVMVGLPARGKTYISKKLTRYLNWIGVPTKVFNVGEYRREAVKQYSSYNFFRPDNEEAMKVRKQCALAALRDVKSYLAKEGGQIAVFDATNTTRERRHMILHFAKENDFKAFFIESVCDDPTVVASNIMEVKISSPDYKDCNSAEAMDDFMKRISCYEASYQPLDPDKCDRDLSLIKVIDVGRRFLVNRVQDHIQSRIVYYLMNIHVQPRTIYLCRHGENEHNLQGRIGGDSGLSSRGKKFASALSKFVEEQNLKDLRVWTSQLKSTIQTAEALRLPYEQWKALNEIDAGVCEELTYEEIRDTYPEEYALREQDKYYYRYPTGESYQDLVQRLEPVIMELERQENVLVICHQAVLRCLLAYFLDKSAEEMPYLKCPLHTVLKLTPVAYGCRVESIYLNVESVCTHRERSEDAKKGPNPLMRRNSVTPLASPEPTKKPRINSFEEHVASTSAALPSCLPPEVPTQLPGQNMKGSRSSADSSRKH

Work on COc1ccccc1Nc1nnc(S)s1 [B2, 5-[(2-methoxyphenyl)amino]-1,3,4-thiadiazole-2-thiol] yielded a pIC50 of 4.92.

With O=C(/C=C/c1ccc2ccc(C(F)(F)F)cc2n1)c1ccncc1 [PFK158] the pIC50 was 5.05.
